Measured values published in patent US11771661B2, “Method of treating post-traumatic stress disorder” (ICAHN SCHOOL OF MEDICINE AT MOUNT SINAI, priority 2013, dated 2023).
Several values for one entry are separate records, joined by “and”; a condition that tells them apart may be missing. Equal values may be shown once.

Tests used:
NMDA receptors = conditions: read-out: Ki, binding to NMDA receptors; cited from earlier work
[1] = test system: intractable central neuropathic pain; conditions: in vivo; cited from earlier work
[2] = test system: patients with chronic PTSD; assay: Example 2: randomized, double-blind, midazolam-controlled crossover trial of IV ketamine, symptom ratings; type: in vivo, human; conditions: for decrease in CAPS score: at 7 days, single infusion study; for CAPS Total (Week 1), mean / CAPS Total (Week 2), mean / CGI-I (Week 1), mean / CGI-I (Week 2), mean / IES-R Total (Week 1), mean / IES-R Total (Week 2), mean: by treatment group (drug given first); for CAPS Total (Week 1) / CAPS Total (Week 2) / CGI-I (Week 1) / CGI-I (Week 2) / IES-R Total (Day 10) / IES-R Total (Week 1) / IES-R Total (Week 2): individual responder patients, after first infusion; for IES-R_response No, Percent of total / IES-R_response Yes, Percent of total: of all 35 patients; for IES-R_response No, Frequency / IES-R_response Yes, Frequency: response = 50% improvement in IES-R score at 24 hours post-infusion; for IES-R_response No, Row Pct: share of non-responders; for IES-R_response Yes, Row Pct: share of responders; for IES-R_response No, Col Pct / IES-R_response Yes, Col Pct (responded after infusion): share of the treatment group; for IES-R_response Yes, Col Pct (responded after infusion): 24 hours post-infusion
Description: Patients with chronic PTSD were enrolled in a controlled study. […] Exclusion criteria included lifetime history of psychotic or bipolar disorder, current bulimia or anorexia nervosa, alcohol abuse or dependence in the previous three months, serious unstable medical illness or sleep apnea, active suicidal or homicidal ideation on presentation, or current use of any psychotropic medications. All patients underwent a physical examination and laboratory screening including routine hematologic, biochemical and urine toxicology testing, as well as an electrocardiogram to rule out unstable medical illness and active substance use. To receive the second IV infusion, a CAPS score of at least 50 was required prior to the second infusion. The Institutional Review Board at Mount Sinai approved the study, and informed consent was obtained from all study participants.
Study participants were free of concomitant psychotropic medications for two weeks prior to randomization and for the duration of the study. For each procedure day, patients were assigned to receive a single IV infusion of ketamine hydrochloride (0.5 mg/kg) or midazolam (0.045 mg/kg), administered over 40 minutes. Order of infusions (ketamine-midazolam or midazolam-ketamine) was randomly assigned and administrations were two weeks apart. […] Only the research pharmacy was aware of drug identity, and all study personnel, including investigators, anesthesiologists, raters, patients and data analysts were blinded to randomization order.
Following admission and an overnight fast, an indwelling catheter was placed in the antecubital vein of the non-dominant arm. Pulse, blood pressure, pulse-oximetry and ECG monitoring were instituted (see Murrough J et al. Antidepressant efficacy of ketamine in treatment-resistant major depression: a two-site, randomized controlled trial. The American Journal of Psychiatry. 2013 Oct. 1; 170(10):1134-42). Ratings were administered by a trained rater during the infusion and at 240 minutes after the start of the infusion. A different rater, blinded to the ratings during post-infusion on infusion, administered ratings at pre-infusion baseline, 24 hours (Day 1) post-infusion (before patients were discharged from the hospital), 48 hours (Day 2), 72 hours (Day 3), and 7 days (Day 7) post-infusion. Ratings were also administered at 10 and 13 days post-infusion, though data analyses focused on the first week post-infusion due to the expected duration of ketamine action. Patients were instructed to abstain from taking psychotropic medications and from using alcohol or substances of abuse for the duration of the trial. As described above, patients who scored ≥50 on the CAPS 2 weeks after the first infusion received an infusion of the second study drug.
The primary outcome was PTSD symptom severity at 24 hours post-infusion, assessed with the Impact of Event Scale—Revised (IES-R). Twenty-four hours post-infusion was selected as the primary endpoint, as acute sedating and other side effects were expected to have resolved, while potential symptom improvement was expected to persist at 24 hours. Secondary outcome measures included the Montgomery-Asberg Depression Rating Scale (MADRS), the Quick Inventory of Depressive Symptomatology, Self-Report (QIDS-SR), and Clinical Global Impression-Severity (CGI-S) and -Improvement (GCI-I) scales administered by a study clinician at 24 hours, 48 hours, 72 hours and 7 days post-infusion. The IES-R was also administered at 48 hours, 72 hours, and 7 days post-infusion. Additionally, the CAPS was administered 7 days post-infusion.
A mixed-model approach was employed to test effects of treatment, period, and carryover.

breakthrough pain (BTP) = conditions: cited from earlier work
[3] = test system: treatment-resistant major depression; conditions: 0.5 mg/kg intravenous infusion over 40 minutes; cited from earlier work
[4] = test system: patients with treatment resistant depression (TRD), co-morbid current PTSD; assay: Example 1: open-label ketamine infusion in treatment resistant depression patients, case studies with co-morbid PTSD; type: in vivo, human; conditions: for IES score: baseline 48
Procedure: In a ketamine infusion study in patients with treatment resistant depression (TRD), ketamine (0.5 mg/kg IV) was administered open-label and combined with pre-infusion treatment with a single oral dose of lamotrigine (300 mg) or placebo administered under double-blind conditions. Preliminary analyses were recently performed on a sample of 16 patients. […] A strong positive correlation between individual childhood trauma (abuse and/or neglect) and the antidepressant response (MADRS: r=0.55, p=0.03; QIDS-SR: r=0.59, p=0.02).
The effect of ketamine on Hamilton Anxiety Rating Scale (HAM-A) scores was also measured. A strong positive correlation between the magnitude of the ketamine-induced reduction in HAM-A scores and personal history of childhood trauma measured using the Childhood Trauma Questionnaire (CTQ; n=15, r=0.59, p=0.02) was observed. […] Patient A, suffered from distressing intrusive memories, nightmares, flashbacks, hypervigilance, poor concentration, and depressed mood. Patient A described their PTSD and MDD symptoms as chronic, but having intensified over time, due to ongoing events in their life.
After observing the magnitude of the therapeutic effect of ketamine in Patient A, TRD patients with a co-morbid current PTSD diagnosis were administered the Clinician-Administered PTSD Scale (CAPS) and the Impact of Events Scale (IES) before and after ketamine infusion. […] The day after ketamine infusion, Patient M reported that they felt an “intellectual distance” from the emotional content of prior traumatic events that allowed them to feel more in control. Patient M further described feeling relieved of a compulsion to continuously analyze their past, identify ways in which they might have circumvented trauma, and subsequently punish themself for their failure to avoid trauma. One week post-infusion, Patient M's CAPS score had dropped by 90% and could be considered a remission (defined as CAPS<20). Two weeks post-infusion, Patient M maintained their “intellectual distance” from the emotional content associated with their trauma.

[5] = test system: patients with chronic PTSD; assay: Example 2: side effects (PRISE, CADSS, BPRS, YMRS item 1) after IV infusion; type: in vivo, human
Procedure: General side effects and possible dissociative, psychotomimetic, and manic symptoms were measured with the Patient-Rated Inventory of Side Effects (PRISE), Clinician-Administered Dissociative States Scale (CADSS), Brief Psychiatric Rating Scale (BPRS) and Young Mania Rating Scale (YMRS) item 1 (elevated mood), respectively.
Secondary analyses also examined the effect of depression on PTSD symptoms and the interaction between treatment and depression. A mixed model approach was used to examine the effects of treatment, baseline MADRS score, and 24-hour MADRS score using only first-period data. Safety and tolerability were analyzed using descriptive statistics.

[6] = Side effects of IV administration of ketamine; type: in vivo, human
Procedure: IV administration of ketamine can be on an as needed basis, e.g., when symptoms of PTSD appear. For IV administration, ketamine (e.g., doses of at least 0.5 mg/kg) may be administered over a period of 40 minutes. IV administration may be continued for up to 1 week, or longer. IV administration of ketamine may also be effected at least twice, at least three times, at least four times, at least five time, at least six times, at least seven times per week, and may be continued over a period of two, three, four, five, six, seven, eight, nine or 10 weeks, or more. […] Any side effects observed are typically mild, e.g., euphoria, elevated BP, increased libido, perceptual disturbances, and furthermore these effects typically abate within 80 minutes post-infusion.

[7] = IN vs IV; cited from earlier work
[8] = cited from earlier work
[9] = ketamine vs midazolam, cross-over 24 hours, n = 29
[10] = ketamine vs midazolam, first infusion 24 hours, n = 41
[11] = 0.5 mg/kg IV open-label, 16 TRD patients

CN[C@@]1(c2ccccc2Cl)CCCCC1=O [R(−)]
Ki (NMDA receptors): 1100 nM

CN[C@]1(c2ccccc2Cl)CCCCC1=O [S(+)-ketamine]
Ki (NMDA receptors): 3200 nM
potency compared with racemic mixture of ketamine [1]: two times more potent

CNC1(c2ccccc2Cl)CCCCC1=O (centres unmarked) [ketamine, 2-(2-chlorophenyl)-2-(methylamino)-cyclohexanone]
CAPS score, mean difference ketamine-midazolam ([2]; 7 days post-infusion, p-value=0.20): 8.7
decrease in CAPS score [2]: 27 (sd=20)
CAPS Total (Week 1), mean [2]: 54.00
CAPS Total (Week 2), mean [2]: 56.21
CGI-I (Week 1), mean [2]: 3.22
CGI-I (Week 2), mean [2]: 3.15
IES-R Total (Week 1), mean [2]: 25.76
IES-R Total (Week 2), mean [2]: 25.67
CAPS Total (Week 1) [2]: 16 and 45 and 41 and 33 and 54 and 22 and 13
CAPS Total (Week 2) [2]: 11 (2×) and 25 and 28 and 19 and 44 and 45
CGI-I (Week 1) [2]: 2 (5×) and 3
CGI-I (Week 2) [2]: 2 (3×) and 3
IES-R Total (Day 10) [2]: 4 and 3 (3×) and 15 and 25.14 and 28
IES-R Total (Week 1) [2]: 1 and 8.38 and 10 and 2 and 18 and 17 and 3
IES-R Total (Week 2) [2]: 6 and 1 and 14 and 0 and 26 and 28 and 2
IES-R, differences of least squares means estimate ([2]; ketamine vs midazolam, collapsed across 24, 48, 72 hours and seven days, first period, p=0.046): −8.32
QIDS-SR, differences of least squares means estimate ([2]; ketamine vs midazolam, collapsed across time, first period, p=0.050): −2.73
MADRS, differences of least squares means estimate ([2]; ketamine vs midazolam, collapsed across time, first period, p=0.052): −3.99
CGI-I, mean difference [2, 9]: 1.2
CGI-S, mean difference [2, 9]: 1.0
IES-R Avoidance, mean difference [2, 9]: 4.8
IES-R Hyperarousal, mean difference [2, 9]: 3.9
IES-R Re-experiencing, mean difference [2, 9]: 4.0
IES-R total, mean difference [2, 9]: 12.7
MADRS, mean difference [2, 9]: 3.7
QIDS, mean difference [2, 9]: 0.17
CGI-I, mean difference [2, 10]: 0.80
CGI-S, mean difference [2, 10]: 0.90
IES-R Avoidance, mean difference [2, 10]: 3.3
IES-R Hyperarousal, mean difference [2, 10]: 2.6
IES-R Re-experiencing, mean difference [2, 10]: 2.6
IES-R total, mean difference [2, 10]: 8.6
MADRS, mean difference [2, 10]: 2.7
QIDS, mean difference [2, 10]: 1.5
IES-R_response No, Percent of total [2]: 25.71%
IES-R_response Yes, Percent of total [2]: 28.57%
β of treatment assignment on IES-R score at 24 hours post-infusion ([2]; period-1 analysis, 41 patients, ketamine vs midazolam, p=0.0496): 6.5
IES-R_response No, Frequency [2]: 9
IES-R_response Yes, Frequency [2]: 10
IES-R_response No, Row Pct [2]: 45.00 Pct
IES-R_response Yes, Row Pct [2]: 66.67 Pct
IES-R_response No, Col Pct [2]: 47.37 Pct
IES-R_response Yes, Col Pct (responded after infusion) [2]: 52.63%
breakthrough pain vs placebo (breakthrough pain (BTP); 10-50 mg intranasal in incremental 10 mg doses every 90 seconds): lower BTP
side effects (breakthrough pain (BTP); 10-50 mg intranasal): very few side effects
duration of improvements in depression [3]: up to 1 week
serious adverse events [3]: no serious adverse events
time to improvements in depression post-injection [3]: ≤ 2 h
MADRS clinical depression scores, baseline to 24 hours post-infusion [4, 11]: reduced clinical depression scores
self-reported mood, QIDS-SR [4, 11]: improved
IES score ([4]; Patient M, +1 week): 5
CAPS score ([4]; Patient M, +1 week, baseline 81): 8
IES score ([4]; Patient M, +2 weeks): 15
CAPS score ([4]; Patient M, +2 weeks, baseline 81): 27
IES score ([4]; Patient M, +40 min post-ketamine): 33
IES score ([4]; Patient M, +240 min): 3
IES score ([4]; Patient M, +24 hours): 16
IES score ([4]; Patient M, +72 hours): 5
drop in CAPS score ([4]; Patient M, one week post-infusion, baseline 81): 90%
psychotic or manic symptoms ([5]; BPRS, YMRS item 1): No emergence of significant psychotic or manic symptoms
patients requiring acute beta-blocker treatment for blood pressure elevation ([5]; during infusion, systolic >180 and/or diastolic >100): Three
time by which dissociative symptoms had resolved ([5]; from start of infusion): ≤ 120 min
time of peak of dissociative symptoms ([5]; from start of infusion): 40 min
safety and tolerability ([5]; single dose IV): safe and well-tolerated
serious adverse events caused by IV administration [6]: No serious adverse events
time by which mild side effects typically abate post-infusion [6]: ≤ 80 min
intranasal plasma levels (pain treatment) lower than intravenous ketamine studies in depression [7]: 3-4 fold
dose at which mild adverse effects (dysphoria, hallucinations) can occur ([8]; in vivo): greater than 50 mg
total intranasal dose usually required for mild adverse effects ([8]; intranasal): greater than 100 mg

Cc1ncc2n1-c1ccc(Cl)cc1C(c1ccccc1F)=NC2 [midazolam]
number of patients whose symptoms remained significantly improved ([2]; at 2 weeks, CAPS score <50, drug given first): one
decrease in CAPS score [2]: 13 (sd=18)
CAPS Total (Week 1), mean [2]: 65.69
CAPS Total (Week 2), mean [2]: 70.81
CGI-I (Week 1), mean [2]: 3.80
CGI-I (Week 2), mean [2]: 3.91
IES-R Total (Week 1), mean [2]: 36.32
IES-R Total (Week 2), mean [2]: 32.51
CAPS Total (Week 1) [2]: 50
CAPS Total (Week 2) [2]: 30
CGI-I (Week 1) [2]: 4
CGI-I (Week 2) [2]: 4
IES-R Total (Day 10) [2]: 6
IES-R Total (Week 1) [2]: 12.57
IES-R Total (Week 2) [2]: 5
IES-R_response No, Percent of total [2]: 31.43%
IES-R_response Yes, Percent of total [2]: 14.29%
IES-R_response No, Frequency [2]: 11
IES-R_response Yes, Frequency [2]: 5
IES-R_response No, Row Pct [2]: 55.00 Pct
IES-R_response Yes, Row Pct [2]: 33.33 Pct
IES-R_response No, Col Pct [2]: 68.75 Pct
IES-R_response Yes, Col Pct (responded after infusion) [2]: 31.25%
